This data set has as its target ATP-dependent translocase ABCB1 (Homo sapiens, UniProt P08183). The data set can be described thus: TP_TRANSPORTER: inhibition of Rhodamine 123 efflux (R123: 10 uM, Genistein: 200 uM) in BALB/c-3T3-1000 cells (MDR1-transfected). Format: functional, cell-based. To be noted: mouse, balb/c-3t3-1000, 200 µM.

Structures are written as SMILES.

ATP-dependent translocase ABCB1, sequence (P08183 whole entry): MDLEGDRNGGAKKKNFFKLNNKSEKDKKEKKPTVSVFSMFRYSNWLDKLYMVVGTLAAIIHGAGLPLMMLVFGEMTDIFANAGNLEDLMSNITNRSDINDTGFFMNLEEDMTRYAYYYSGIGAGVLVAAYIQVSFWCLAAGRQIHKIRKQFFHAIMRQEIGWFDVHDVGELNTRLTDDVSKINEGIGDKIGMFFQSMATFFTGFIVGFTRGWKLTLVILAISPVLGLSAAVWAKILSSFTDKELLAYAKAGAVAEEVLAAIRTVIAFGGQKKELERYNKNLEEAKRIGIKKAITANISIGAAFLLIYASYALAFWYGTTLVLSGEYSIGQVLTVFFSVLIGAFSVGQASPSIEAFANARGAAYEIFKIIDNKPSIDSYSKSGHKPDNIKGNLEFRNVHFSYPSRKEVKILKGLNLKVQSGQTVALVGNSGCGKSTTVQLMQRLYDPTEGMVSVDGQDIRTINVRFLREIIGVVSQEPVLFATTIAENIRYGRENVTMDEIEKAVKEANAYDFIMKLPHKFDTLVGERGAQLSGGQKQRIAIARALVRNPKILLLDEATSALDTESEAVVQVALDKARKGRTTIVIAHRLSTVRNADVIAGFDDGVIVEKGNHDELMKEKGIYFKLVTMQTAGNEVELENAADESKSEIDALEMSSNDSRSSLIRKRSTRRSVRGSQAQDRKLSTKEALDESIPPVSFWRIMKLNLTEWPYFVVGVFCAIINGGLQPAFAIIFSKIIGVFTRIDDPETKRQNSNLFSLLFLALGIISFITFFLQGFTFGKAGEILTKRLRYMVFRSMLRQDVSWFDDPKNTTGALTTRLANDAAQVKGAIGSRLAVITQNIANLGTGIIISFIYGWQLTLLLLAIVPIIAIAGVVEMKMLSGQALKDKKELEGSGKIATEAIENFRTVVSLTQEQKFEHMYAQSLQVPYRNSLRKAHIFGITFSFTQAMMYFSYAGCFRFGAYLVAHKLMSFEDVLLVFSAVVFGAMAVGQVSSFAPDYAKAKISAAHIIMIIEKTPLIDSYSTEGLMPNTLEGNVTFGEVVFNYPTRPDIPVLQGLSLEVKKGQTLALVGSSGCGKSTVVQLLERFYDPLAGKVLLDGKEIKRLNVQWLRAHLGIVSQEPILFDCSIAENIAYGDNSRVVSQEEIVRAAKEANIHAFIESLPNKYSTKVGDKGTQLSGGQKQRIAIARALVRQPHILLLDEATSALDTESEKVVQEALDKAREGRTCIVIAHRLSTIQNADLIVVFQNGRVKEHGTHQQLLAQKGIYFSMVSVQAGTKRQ

As for `O=c1c(-c2ccc(O)cc2)coc2cc(O)cc(O)c12` [GENISTEIN], the Inhibition entry is “inhibitor [50-60 % inhibition]”.

Source of the values: ChEMBL document CHEMBL2074229, “Inhibition of drug transport by genistein in multidrug-resistant cells expressing P-glycoprotein” (Biochem Pharmacol, 1997).
